Laboratory results taken from ChEMBL document CHEMBL1151911, “A microwave-assisted facile regioselective Fischer indole synthesis and antitubercular evaluation of novel 2-aryl-3,4-dihydro-2H-thieno[3,2-b]indoles” (2009).
Values after ≈ are worked out from the molar mass of the structure shown.

Tested on: Mycobacterium tuberculosis
Test: Antimycobacterial activity against multi drug-resistant Mycobacterium tuberculosis
Type: functional

| Structure (SMILES) | MIC [µg/mL] |
| --- | --- |
| Fc1ccc2[nH]c3c(c2c1)SC(c1ccccc1)C3 (stereo not given) | 12.5 (≈ 46.4 µM) |
| Fc1ccc2[nH]c3c(c2c1)SC(c1ccc(Cl)cc1)C3 (stereo not given) | 1.56 (≈ 5.14 µM) |
| Cc1ccc(C2Cc3[nH]c4ccc(F)cc4c3S2)cc1 (stereo not given) | 1.56 (≈ 5.51 µM) |
| Clc1ccc2[nH]c3c(c2c1)SC(c1ccccc1Cl)C3 (stereo not given) | 1.56 (≈ 4.87 µM) |
| CC(C)c1ccc(C2Cc3[nH]c4ccc(Cl)cc4c3S2)cc1 (stereo not given) | 0.78 (≈ 2.38 µM) |
| Fc1ccc2[nH]c3c(c2c1)SC(c1ccccc1Cl)C3 (stereo not given) | 1.56 (≈ 5.14 µM) |
| CC(C)c1ccc(C2Cc3[nH]c4ccc(F)cc4c3S2)cc1 (stereo not given) | 0.4 (≈ 1.28 µM) |
| Clc1ccc(C2Cc3[nH]c4ccccc4c3S2)c(Cl)c1 (stereo not given) | 0.78 (≈ 2.44 µM) |
| Fc1ccc(C2Cc3[nH]c4ccc(Cl)cc4c3S2)cc1 (stereo not given) | 0.78 (≈ 2.57 µM) |
| Cc1ccc(C2Cc3[nH]c4ccccc4c3S2)cc1 (stereo not given) | 12.5 (≈ 47.1 µM) |
| Brc1ccccc1C1Cc2[nH]c3ccccc3c2S1 (stereo not given) | 3.13 (≈ 9.48 µM) |
| Clc1ccc(C2Cc3[nH]c4ccc(Cl)cc4c3S2)c(Cl)c1 (stereo not given) | 0.4 (≈ 1.13 µM) |
| Cc1ccc(C2Cc3[nH]c4ccc(Cl)cc4c3S2)cc1 (stereo not given) | 6.25 (≈ 20.8 µM) |
| O=[N+]([O-])c1cccc(C2Cc3[nH]c4ccccc4c3S2)c1 (stereo not given) | 0.78 (≈ 2.63 µM) |
| CC(C)c1ccc(C2Cc3[nH]c4ccccc4c3S2)cc1 (stereo not given) | 0.4 (≈ 1.36 µM) |
| Fc1ccc2[nH]c3c(c2c1)SC(c1ccc(Cl)cc1Cl)C3 (stereo not given) | 0.4 (≈ 1.18 µM) |
| CC[C@@H](CO)NCCN[C@@H](CC)CO [ETHAMBUTOL] | 12.5 (≈ 61.2 µM) |
| NNC(=O)c1ccncc1 [ISONIAZID] | 1.56 (≈ 11.4 µM) |
| NC(=O)c1cnccn1 [PYRAZINAMIDE] | 50 (≈ 406 µM) |
| CO[C@H]1/C=C/O[C@@]2(C)Oc3c(C)c(O)c4c(O)c(c(/C=N/N5CCN(C)CC5)c(O)c4c3C2=O)NC(=O)/C(C)=C\C=C\[C@H](C)[C@H](O)[C@@H](C)[C@@H](O)[C@@H](C)[C@H](OC(C)=O)[C@@H]1C [RIFAMPIN] | 3.13 (≈ 3.8 µM) |
